Results: patent US20030139391A1 (priority 2000, published 2003)
Marks after values point to notes of the source that are not given here.

How the values were obtained:
Format in all cases: in vivo, human
patients = experiment: ADAS-cog in earlier study with quicker titration; details: for ADAS-cog: Actual Drug Mean (SE): raw mean
Protocol: An improvement in tolerability at this dose was seen, but this dose was suboptimal from an efficacy standpoint.
Statistical analysis of the results of the ADAS-cog score is shown below in Table 7. […] This indicated a significant improvement of the patients' cognitive function at this dose level. The treatment with 36 mg/day in this study was terminated at an early point and thus there was insufficient information for a well defined comparison with the placebo.

[1] = system: Patients diagnosed with Alzheimer's Disease; experiment: ADCS/ADL scale in 5-month slow-titration trial
Excerpt: (§1) Subjects in the Placebo group received 21 weeks (5 months) of placebo medication.
The ADCS/ADL scale is a 23-item informant-based assessment scale measuring widely applicable daily activities appropriate for patients in the mild to moderate category of Alzheimer's Disease. The 23 items were selected for measurement from the larger set of 45 items studied by Galasko et al (Alzheimer Disease and Associated Disorders, Vol 11, Suppl. 2, 1997). These individual items were scored from 0-3 to […], depending on the question, with a possible total score of 78. A higher score indicated a higher functioning patient.
An additional secondary indication captures overall changes in Activities of daily Living (ADL) performances as measured by the Alzheimer's Disease Cooperative Study Activities of Daily Living (ACDS/ADL) scale. As mentioned above this scale is comprised of 23 items that have been tested and validated in patients with mild to moderately severe Alzheimer's disease.

[2] = system: Patients diagnosed with Alzheimer's Disease; experiment: ADAS-cog/11 in 5-month slow-titration trial
Excerpt: as §1
All patients were monitored throughout the study, with follow-up and cognitive evaluation at four weeks, three months and five months after the start of the study.
The ADAS consists of two parts—a cognitive subscale and a behavioral subscale. The behavioral subscale was not be used in this study. The cognitive subscale, the ADAS—cog-11, consisted of Word Recall and Word Recognition memory tests, Object and Finger Naming, Commands, Constructional Praxis, Ideational Praxis, Orientation, Remembering Test Instructions, Spoken language Ability, Comprehension of Spoken language and Word Finding Difficulty was the primary variable in this study.
To reduce variability due to circadian fluctuations in cognitive status the ADAS was done always at the same time of the day, preferably before noon. Only a trained ADAS rater performed the test. Ideally the ADAS rater was not involved in the treatment of the subject and should have no access to AE (adverse event) reporting.
The ADAS was performed at visits 1, 2, 3, 4 and 5 (screening, baseline, week 4, week 13 and month 5 or upon early discontinuation of trial medication intake). For word recall and word recognition two parallel wordlists, list A and list B were employed. List A was used at visits 1 and 3, List B at visits 2, 4, and 5 or upon early discontinuation of trial medication intake. For practical reasons the words for word recognition was presented only once. The total score of the 11 cognitive items on the original ADAS cognitive subscale (ADAS-cog/11, Range: 0-70) was recorded.
For continuous data, a two-way analysis of variance (ANOVA) model with treatment and investigator as factors were used to compare the treatment groups for the change from baseline data. The interaction between treatment and investigator was examined. The impact of the baseline score on change from baseline was evaluated. […] If the parametric methods were deemed inappropriate (normality assumption violated), nonparametric methods such as two-way ANOVA on ranked data, Van Elteren test, controlling for investigator, was used. Following ANOVA, Fisher's LSD procedure was used for pairwise comparisons between each galanthamine group and the placebo group. A linear contrast on the main effect for treatment was used to test the dose response relationship.

For `COc1ccc2c3c1O[C@H]1C[C@@H](O)C=C[C@@]31CCN(C)C2` [GAL, galantamine], the “ADAS-cog: Mean estimate GAL-Placebo Difference” value (patients; 18 mg/day) was −1.69, the “ADAS-cog: Z, measure of advantage of galantamine over placebo” value (shortened to “ADAS-cog: Z, measure … over placebo”) (patients; 18 mg/day) was 9.9 and the “ADAS-cog: Actual Drug Mean (SE)” value (patients; 18 mg/day) was 0.5 (0.70). For the same molecule, the “ADAS-cog: Mean estimate GAL-Placebo Difference” value (patients; 24 mg/day) was −3.34, the “ADAS-cog: Z, measure … over placebo” value (patients; 24 mg/day) was 13.4 and the “ADAS-cog: Actual Drug Mean (SE)” value (patients; 24 mg/day) was 0.7 (0.9). For the same molecule, the “ADAS-cog: Mean estimate GAL-Placebo Difference” value (patients; 36 mg/day) was −1.93, the “ADAS-cog: Z, measure … over placebo” value (patients; 36 mg/day) was 7.8 and the “ADAS-cog: Actual Drug Mean (SE)” value (patients; 36 mg/day) was 1.1 (0.9). The “Change in Total ADL score from baseline at Month 5, Mean (SE)” value (“Change in Total ADL score … (SE)” for short) ([1]; LOCF, 8 mg/day) was −3.2 (0.79), the “Change in Total ADL score … (SE)” value ([1]; LOCF, 24 mg/day) was −1.5 (0.56)** and the “Change in Total ADL score … (SE)” value ([1]; observed case, 8 mg/day) was −3.1 (0.91). For the same molecule, the “Change in Total ADL score … (SE)” value ([1]; observed case, 16 mg/day) was −0.5 (0.55)***^†, the “Change in Total ADL score … (SE)” value ([1]; observed case, 24 mg/day) was −1.6 (0.61)** and the “Responders, ADAS-cog/11 change ≦ 0 points at Month 5: %” value ([2]; 8 mg/day) was 46.5%. The “Responders, ADAS-cog/11 change ≦ 0 points at Month 5: n” value ([2]; 8 mg/day) was 47, the “Responders, ADAS-cog/11 change ≦ −4 points at Month 5: %” value ([2]; 8 mg/day) was 25.7% and the “Responders, ADAS-cog/11 change ≦ −4 points at Month 5: n” value ([2]; 8 mg/day) was 26. For the same molecule, the “Responders, ADAS-cog/11 change ≦ −7 points at Month 5: %” value ([2]; 8 mg/day) was 13.9%, the “Responders, ADAS-cog/11 change ≦ −7 points at Month 5: n” value ([2]; 8 mg/day) was 14 and the “Responders, ADAS-cog/11 change ≦ −10 points at Month 5: %” value ([2]; 8 mg/day) was 5.9%. The “Responders, ADAS-cog/11 change ≦ −10 points at Month 5: n” value ([2]; 8 mg/day) was 6, the “Responders, ADAS-cog/11 change ≦ 0 points at Month 5: %” value ([2]; 16 mg/day) was 65.4% and the “Responders, ADAS-cog/11 change ≦ 0 points at Month 5: n” value ([2]; 16 mg/day) was 136. The “Responders, ADAS-cog/11 change ≦ −4 points at Month 5: %” value ([2]; 16 mg/day) was 35.6%, the “Responders, ADAS-cog/11 change ≦ −4 points at Month 5: n” value ([2]; 16 mg/day) was 74 and the “Responders, ADAS-cog/11 change ≦ −7 points at Month 5: %” value ([2]; 16 mg/day) was 15.9%. The “Responders, ADAS-cog/11 change ≦ −7 points at Month 5: n” value ([2]; 16 mg/day) was 33, the “Responders, ADAS-cog/11 change ≦ −10 points at Month 5: %” value ([2]; 16 mg/day) was 7.2% and the “Responders, ADAS-cog/11 change ≦ −10 points at Month 5: n” value ([2]; 16 mg/day) was 15. For the same molecule, the “Responders, ADAS-cog/11 change ≦ 0 points at Month 5: %” value ([2]; 24 mg/day) was 64.9%, the “Responders, ADAS-cog/11 change ≦ 0 points at Month 5: n” value ([2]; 24 mg/day) was 137 and the “Responders, ADAS-cog/11 change ≦ −4 points at Month 5: %” value ([2]; 24 mg/day) was 37.0%. For the same molecule, the “Responders, ADAS-cog/11 change ≦ −4 points at Month 5: n” value ([2]; 24 mg/day) was 78, the “Responders, ADAS-cog/11 change ≦ −7 points at Month 5: %” value ([2]; 24 mg/day) was 22.3% and the “Responders, ADAS-cog/11 change ≦ −7 points at Month 5: n” value ([2]; 24 mg/day) was 47. For the same molecule, the “Responders, ADAS-cog/11 change ≦ −10 points at Month 5: %” value ([2]; 24 mg/day) was 10.4%, the “Responders, ADAS-cog/11 change ≦ −10 points at Month 5: n” value ([2]; 24 mg/day) was 22 and the “Change from baseline in ADAS-cog/11 at Month 5, Mean (SE)” value (shortened to “Change from baseline … (SE)”) ([2]; LOCF, 8 mg/day, no titration) was 0.4 (0.52)▪. The “Change from baseline … (SE)” value ([2]; LOCF, 16 mg/day after 4-week titration) was −1.4 (0.35)***^♭, the “Change from baseline … (SE)” value ([2]; LOCF, 24 mg/day after 8-week titration) was −1.4 (0.39)***^♭ and the “Change from baseline … (SE)” value ([2]; observed case, 8 mg/day, no titration) was 0.1 (0.58)*. The “Change from baseline … (SE)” value ([2]; observed case, 16 mg/day after 4-week titration) was −1.5 (0.40)***^† and the “Change from baseline … (SE)” value ([2]; observed case, 24 mg/day after 8-week titration) was −1.8 (0.44)***^†.
